Our source for the inhibition and IC50 values is US6686353B1, “Diarylalkyl cyclic diamine derivatives as chemokine receptor antagonists” (Teijin Intellectual Property Center Limited, priority 1996, dated 2004).

Test [1] concerns the target T1, human MCP-1 binding to THP-1 cells (Homo sapiens, UniProt P41597).
T1 construct: endogenous in cells; host or cells: THP-1 (human monocytic leukemia cell line), whole cells
T1 sequence (P41597 1-360 isoform P41597-2): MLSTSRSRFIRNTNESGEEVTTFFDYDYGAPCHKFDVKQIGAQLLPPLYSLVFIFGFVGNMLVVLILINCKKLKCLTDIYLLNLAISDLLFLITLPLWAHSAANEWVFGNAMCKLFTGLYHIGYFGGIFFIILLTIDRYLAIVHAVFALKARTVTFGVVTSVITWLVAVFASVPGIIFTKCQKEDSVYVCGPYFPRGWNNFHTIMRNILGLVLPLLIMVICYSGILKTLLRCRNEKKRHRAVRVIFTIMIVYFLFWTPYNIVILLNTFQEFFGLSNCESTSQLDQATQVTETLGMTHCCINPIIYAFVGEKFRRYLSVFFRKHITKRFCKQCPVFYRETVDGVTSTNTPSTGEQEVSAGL
Nature of the test: Inhibition of [125I]-labeled human MCP-1 binding to THP-1 cells. The settings on record: at 100 μM test compound; read-out: inhibitory activity (inhibition of human MCP-1 binding to THP-1 cells). The text has this:
Measurement of Inhibition of MCP-1 Binding to TP-1 Cells
1. Construction of Recombinant Baculovirus Carrying the Human MCP-1 Gene
Based on the previously published human MCP-1 gene sequence (for example T. Yoshimura et al., Febs Letters, 1989, 244, 487-493), two synthetic DNA primers (5′-[…]-3′ and 5′-[…]-3′) flanked by restriction enzyme sites were used to amplify a DNA fragment from cDNA derived from human endothelial cells (purchased from Kurabow Co.); the amplified fragment was cut with the restriction enzymes (PstI and XbaI), ligated into a transfer vector pVL1393 (Invitrogen Co.), and the resulting vector was co-transfected along with infectious baculovirus into Sf-9 insect cells and the supernatant was plaque assayed to yield human MCP-1 gene baculovirus recombinant.
2. Synthesis of [^125I]-labeled Human MCP-1 Expressed in Baculovirus
Using the method of K. Ishii et al. (Biochem Biophys Research Communications 1995, 206, 955-961), 5×10^6 Sf-6 insect cells was infected with 5×10^7 PFU (plaque forming units) of the above human MCP-1 recombinant baculovirus and cultured for 7 days in Ex-Cell 401 medium. The culture supernatant was affinity purified using a heparin Sepharose column (Pharmacia Co.) and then further purified using reverse phase HPLC (Vydac C18 column) to prepare purified human MCP-1. The purified human MCP-1 was protein labeled by Amersham Co. using the Bolton Hunter method to yield [^125I]-labeled baculovirus expressed human MCP-1 (specific activity 2000 Ci/mmol).
3. Measurement of Inhibition of Binding of [^125I]-labeled Baculovirus Expressed Human MCP-1 to THP-1 Cells
(§1) Human monocytic leukemia cell line THP-1 was suspended in assay buffer (RPMI-1640 (Gibco-BRL Co.) containing 0.1% BSA and 25 mM HEPES adjusted to pH 7.4) to give a cell suspension of a concentration of 1×10^7 cells/mL. The test compound was diluted in the assay buffer and used as the test compound solution. [^125I]-labeled human MCP-1 described above was diluted in assay buffer to 1 mCi/mL and used as the labeled ligand solution. In a 96 well filter plate (Millipore Co.), 25 μL of test compound solution, 25 μL of labeled ligand solution and 50 μL of cell suspension were aliquoted into each well in this order, stirred (total reaction volume 100 μL), and incubated for one hour at 18° C.
After the reaction, the reaction solution was filtered, and the filter was washed twice with 200 μL of cold PBS (200 μL of cold PBS was added and then filtered). The filter was removed and placed in an RIA tube (Iuchi Seieido Co.,), and the radioactivity retained by the cells on the filter were measured using a gamma counter (Aloka Co.).
To calculate the ability of test compound to inhibit binding of human MCP-1 to THP-1 cells, non-specific binding determined by adding 100 ng of unlabeled human MCP-1 in place of the test compound was subtracted, while the counts with no test compound added was taken as 100%.
Inhibition (%)=(1−(A−B)/(C−B))×100
(A, counts with test compound added; B, counts with 100 ng of unlabeled human […] added; C, counts with [^125I]-labeled human MCP-1 added).

In test [2] the target is T2, human MIP-1α binding to THP-1 cells (Homo sapiens, UniProt P32246).
T2 construct: endogenous in cells; host or cells: THP-1 (human monocytic leukemia cell line), whole cells
T2 sequence (P32246 1-355): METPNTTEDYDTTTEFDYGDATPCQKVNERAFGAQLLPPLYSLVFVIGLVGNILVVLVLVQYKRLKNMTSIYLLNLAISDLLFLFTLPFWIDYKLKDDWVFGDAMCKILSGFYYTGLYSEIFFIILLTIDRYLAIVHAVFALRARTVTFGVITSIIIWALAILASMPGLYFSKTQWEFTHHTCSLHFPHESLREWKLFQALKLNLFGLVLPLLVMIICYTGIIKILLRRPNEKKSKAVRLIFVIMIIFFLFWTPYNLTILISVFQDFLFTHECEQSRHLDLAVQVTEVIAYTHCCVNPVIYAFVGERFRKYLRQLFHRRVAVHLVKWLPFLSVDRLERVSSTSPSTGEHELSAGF
Nature of the test: Inhibition of MIP-1α binding to THP-1 cells. The settings on record: at 100 μM test compound; read-out: inhibitory activity (inhibition of human MIP-1α binding to THP-1 cells). As for the experimental part:
Measurement of Inhibition of MIP-1α Binding to THP-1 Cells by Test Compounds
as §1, with “Iodinated” for “[^125I]-labeled”, “MIP-1α (DuPont NEN Co.)” for “MCP-1 described above”, “250 nCi/mL” for “1 mCi/mL”, “the” for “the labeled”, “solution.” for “solution,”
After the reaction, the reaction solution was filtered, and the filter was washed twice with 200 μL of cold PBS (200 μL of cold PBS was added and then filtered). The filter was removed and placed in an RIA tube (Iuchi Seieido Co.) and the radioactivity retained by the cells on the filter were measured using a gamma counter (Aloka Co.).
To calculate the ability of test compounds to inhibit binding of human MIP-1α to THP-1 cells, non-specific binding determined by adding 100 ng of unlabeled human MIP-1α (Peprotech Co.) in place of the test compound was subtracted, while the counts with no test compound added was taken as 100%. […]

In a further test the target is T3, MCP-1 receptor (Homo sapiens, UniProt P41597).
T3 construct: expressed in transfected cells
T3 sequence (P41597 1-360 isoform P41597-2): T1 sequence (P41597 1-360 isoform P41597-2)
Nature of the test: Inhibition of binding of [125I]-labeled human MCP-1 to cells expressing the MCP-1 receptor (293-EBNA transfectant). The settings on record: dose dependent inhibition; 293-EBNA cells expressing MCP-1 receptor; read-out: 50% inhibitory concentration (IC50), MCP-1 binding to MCP-1 receptor expressing cells. The text has this:
Measurement of Inhibition of Binding of [^125I]-labeled Human MCP-1 to Cells Expressing the MCP-1 Receptor
1. Derivation of Cells Expressing the MCP-1 Receptor
cDNA fragment containing the MCP-1 receptor reported by S. Yamagami et al., Biochemical Biophysical Research Communications 1994, 202, 1156-1162) was cloned into the expression plasmid pCEP4 (Invitrogen Co.) at the NotI site, and the plasmid obtained was transfected into the human kidney epithelial cell line 293-EBNA using the Lipofectamine reagent (Gibco-BRL Co.). The cells were cultured in the presence of the selective agent (Hygromycin), and a stably expressing transfectant line was obtained. The express ion of the receptor was confirmed by binding of [^125I]-labeled human MCP-1.
2. Measurement of Inhibition of Binding of [^125I]-labeled Baculovirus Expressed Human MCP-1 to the MCP-1 Receptor Expressing Cells
The MCP-1 receptor expressing cells on tissue culture dishes were scraped using a call scraper and suspended in assay buffer (D-MEM(Gibco-BRL Co.) containing 0.1% BSA and 25 mM HEPES adjust ed to pH 7.4) to give a cell suspension of a concentration of 6×10^6 cellls/mL. The test compound was diluted in the assay buffer to concentrations of […], and 100 μM. The remainder of the procedure was as described in Example 163.

The subject of another test is THP-1 cells. Nature of the test: Inhibition of cell chemotaxis caused by MCP-1 (THP-1 cells). Type of test: cell-based, human. Conditions: MCP-1 20 ng/mL, 37° C. 2 hr, read-out: 50% inhibition concentration (IC50) of cell migration. As for the experimental part:
Measurement of Inhibition of Cell Chemotaxis
In order to determine the inhibition of call chemotaxis by the compounds of this invention, we measured call chemotaxis caused by monocyte chemotactic factor MCP-1 using the human monocytic leukemia cell line THP-1 as the chemotactic cell according to the method of Fall et al. (J. Immunol. Methods, […], 33, 239-247). 2×10^6 cells/mL of THP-1 cells (suspended in RPMI-1640 (Flow Laboratories Co.) +10% FCS) was placed in the upper chamber (200 μL) of a 96 well micro-chemotaxis chamber (Neuroprobe, registered tradename), and human recombinant MCP-1 in a same solution (Peprotech Co.) at a final concentration of 20 ng/mL was placed in the lower chamber, with a polycarbonate filter (PVP-free, Neuroprobe; registered tradename) placed between the two chambers, These were incubated at 37° C. for 2 hr in 5% CO2.
The filter was removed, and the cells which had migrated to the underside of the filter was fixed, stained using Diff Quick (Kokusai Shiyaku Co.) and then quantitated using a plate reader (Molecular Device Co.) at a wavelength of 550 nm to determine the index of cell migration as a mean of 3 wells, In addition. test compounds were placed in the upper chamber along with THP-1, and the inhibition of cell migration (inhibition IC50 (μM)) was determined. […]

Usually inhibition stands for how much of the control response was suppressed.

Structures are written as SMILES. Read-outs that look alike come from different tables or passages of the source.

For `NC(=O)c1ccc(CN2CCCN(CCC(c3ccccc3)c3ccccc3)CC2)cc1` [Compound No. 55, 1-(3,3-Diphenylpropyl)-4-(4-carbamoylbenzyl)homopiperazine], the inhibition at 100 µM in test [1] was over 20%.

On to `OC(CCN1CCCN(Cc2ccc(Cl)cc2)CC1)(c1ccccc1)c1ccccc1` [Compound No. 107, 1-(3-Hydroxy-3,3-diphenylpropyl)-4-(4-chlorobenzyl)homopiperazine], for which the inhibition at 100 µM in test [2] and in test [1] was over 20% throughout.

Consider `CS(=O)(=O)c1ccc(CN2CCCN(CCC(O)(c3ccc(O)cc3)c3ccc(O)cc3)CC2)cc1` [Compound No. 119, 1-[3,3-bis(4-Hydroxyphenyl)-3-hydroxypropyl]-4-[4-(methylsulfonyl)benzyl]homopiperazine], for which the inhibition at 100 µM in test [1] is over 20%.

Consider `CS(=O)(=O)c1ccc(CN2CCCN(CCC(O)(c3ccco3)c3ccco3)CC2)cc1` [Compound No. 129, 1-[3,3-Di(2-furyl)-3-hydroxypropyl]-4-[4-(methylsulfonyl)benzyl]homopiperazine], for which the inhibition at 100 µM in test [1] was over 20%.

In the case of `Cn1cccc1C(O)(CCN1CCCN(Cc2ccc(S(C)(=O)=O)cc2)CC1)c1ccccc1` (centres unmarked) [Compound No. 136, 1-[3-Hydroxy-3-(1-methyl-2-pyrrolyl)-3-phenylpropyl]-4-[4-(methylsulfonyl)benzyl]homopiperazine], in test [1], the inhibition at 100 µM is over 20%.

`CC(=O)Nc1cccc(C(O)(CCN2CCCN(Cc3ccc(S(C)(=O)=O)cc3)CC2)c2ccccc2)c1` (centres unmarked) [Compound No. 162, 1-[3-(3-Acetylaminophenyl)-3-hydroxy-3-phenylpropyl]-4-[4-(methylsulfonyl)benzyl]homopiperazine]: in test [1], the inhibition at 100 µM is over 20%.

For `CC(C)(C)OC(=O)N1CCCN(CCC(O)(c2ccccc2)c2cccc(O)c2)CC1` (centres unmarked) [Compound No. 294, 1-(tert-butyloxycarbonyl)-4-[3-hydroxy-3-(3-hydroxyphenyl)-3-phenylpropyl]homopiperazine], the inhibition at 100 µM in test [1] is over 20%.

Take `Oc1cccc(C(O)(CCN2CCCNCC2)c2ccccc2)c1` (centres unmarked) [Compound No. 295, 1-[3-hydroxy-3-(3-hydroxyphenyl)-3-phenylpropyl]homopiperazine]: the inhibition at 100 µM in test [1] is over 20%.

In the case of `CC(=O)N1CCCN(CCC(O)(c2ccccc2)c2cccc(O)c2)CC1` (centres unmarked) [Compound No. 296, 1-acetyl-4-[3-hydroxy-3-(3-hydroxyphenyl)-3-phenylpropyl]homopiperazine], the inhibition at 100 µM in test [1] was over 20%.

Turning to `CS(=O)(=O)c1ccc(CN2CCCN(CCC(c3ccccc3)c3ccccc3)CC2)cc1` [compound 36], the IC50 was determined as 17 µM on MCP-1 receptor and 9 µM in the test on THP-1 cells (Homo sapiens). Further, the inhibition at 100 µM in test [1] is over 20%.

Turning to `c1ccc(C(CCN2CCCN(Cc3ccncc3)CC2)c2ccccc2)cc1` [compound 240], the IC50 in the test on THP-1 cells was 30 µM.
